Laboratory results: paper PMC4467461, “Small-molecule activation of SERCA2a SUMOylation for the treatment of heart failure” (Nature Communications, 2015)

Biological target: T1, SUMO E1 SAE1 V315F mutant (Homo sapiens, UniProt Q9UBE0+Q9UBT2, V315F)
T1 construct: GST (N); made in house; host or cells: Escherichia coli BL21
T1 sequence (Q9UBE0 1-346 V315F): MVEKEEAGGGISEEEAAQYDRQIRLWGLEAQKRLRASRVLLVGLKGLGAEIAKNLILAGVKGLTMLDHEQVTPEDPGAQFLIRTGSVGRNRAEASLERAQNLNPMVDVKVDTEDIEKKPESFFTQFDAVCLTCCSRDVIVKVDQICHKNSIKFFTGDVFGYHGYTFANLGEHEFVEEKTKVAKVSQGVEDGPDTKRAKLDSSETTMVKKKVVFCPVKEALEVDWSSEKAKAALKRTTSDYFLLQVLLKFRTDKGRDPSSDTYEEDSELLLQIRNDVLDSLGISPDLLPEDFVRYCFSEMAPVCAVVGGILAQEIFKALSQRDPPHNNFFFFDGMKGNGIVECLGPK
T1 sequence (Q9UBT2 1-640): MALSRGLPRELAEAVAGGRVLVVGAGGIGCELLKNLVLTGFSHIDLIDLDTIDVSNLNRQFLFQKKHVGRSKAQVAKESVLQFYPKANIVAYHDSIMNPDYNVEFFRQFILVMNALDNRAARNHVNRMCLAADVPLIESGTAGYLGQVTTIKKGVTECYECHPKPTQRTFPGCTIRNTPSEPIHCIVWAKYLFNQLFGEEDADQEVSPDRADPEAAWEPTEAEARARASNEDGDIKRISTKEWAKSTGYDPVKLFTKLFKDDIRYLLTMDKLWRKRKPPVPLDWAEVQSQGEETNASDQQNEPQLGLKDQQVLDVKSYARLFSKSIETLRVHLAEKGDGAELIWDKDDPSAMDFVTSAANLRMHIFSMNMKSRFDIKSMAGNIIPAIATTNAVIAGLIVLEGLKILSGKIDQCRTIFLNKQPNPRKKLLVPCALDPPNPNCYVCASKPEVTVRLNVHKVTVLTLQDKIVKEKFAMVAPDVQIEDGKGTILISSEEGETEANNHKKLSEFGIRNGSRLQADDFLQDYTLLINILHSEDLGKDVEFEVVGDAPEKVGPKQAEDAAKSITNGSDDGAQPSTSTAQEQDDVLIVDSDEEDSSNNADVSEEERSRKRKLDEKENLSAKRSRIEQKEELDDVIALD
Assay: SUMO E1 activity assays with SAE1 V315F mutant
Type: biochemical
Procedure: Figure 3 SUMO-specific activating enzyme, E1, is a direct target of N106. Mechanism of action of N106 on individual steps in the SUMOylation cascade in vitro. (a) Inorganic pyrophosphate resulting from ATP hydrolysis in E1-catalysed SUMO-1 activation in the presence of increasing concentration of N106 compound was assessed by fluorogenic pyrophosphate assay kit. Recombinant human SUMO-specific E1 (0.05 μM), human Ubc9 (0.25 μM), human SUMO-1 (12.5 μM) and ATP (1 mM) were incubated with increasing concentration of N106 for 30 min at 37 °C and quantified using a fluorescence microplate reader. (b) The SAE2-SUMO-1 conjugation was detected followed by western blotting with anti-SAE2 antibodies. SUMO E1 (0.05 μM), SUMO-1 (12.5 μM) and ATP (1 mM) were co-incubated with increasing concentration of N106 for 30 min at 37 °C. The reaction mixtures were separated on 7.5% SDS–PAGE gel under non-reducing conditions. (c) E2-SUMO-1 conjugation was visualized by western blotting with anti-Ubc9 antibody. SUMO E1 (0.05 μM), Ubc9 (0.25 μM), SUMO-1 (12.5 μM) and ATP (1 mM) were incubated without or with increasing concentration of N106 for 30 min at 37 °C. […] (e) ATP hydrolytic activity of WT and mutant SUMO E1 are determined. (f) The E1-SUMO-1 conjugation was detected followed by western blot analysis with anti-SAE2 antibody. *The SAE2-SUMO-1 conjugated bands. […]

Which results are given for `COc1ccc(-c2nnc(Nc3nc4c(OC)cccc4s3)o2)cc1` [Compound N106, N-(4-methoxybenzo[d]thiazol-2-yl)-5-(4-methoxyphenyl)-1,3,4-oxadiazol-2-amine]?
ATP hydrolysis activity with N106, compared with wild-type protein (V315F mutant): significantly lower; SUMO E1-SUMO and SUMO E2-SUMO conjugations in the presence of N106, compared with WT (V315F mutant SAE1): weaker
